Assay results published in PubChem BioAssay (NCI).
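Five concentrations, 48 hours, 96-well plates. At the GI50, growth is halved. TGI: concentration producing complete growth inhibition.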

Legend:
Test in all cases: DTP human tumour cell line panel, 48 h
[1] = test system: HCT-116 colon
[2] = test system: HOP-62 NSCLC
[3] = test system: CAKI-1 renal
[4] = test system: DU-145 prostate
[5] = test system: RPMI-8226 leukemia
[6] = test system: UACC-62 melanoma
[7] = test system: SF-295 CNS
[8] = test system: MDA-MB-231 breast
[9] = test system: OVCAR-5 ovarian
[10] = test system: UACC-257 melanoma
[11] = test system: SNB-75 CNS
[12] = test system: CCRF-CEM leukemia
[13] = test system: SF-268 CNS
[14] = test system: MDA-MB-435
[15] = test system: HL-60(TB) leukemia
[16] = test system: 786-0 renal
[17] = test system: K-562 leukemia
[18] = test system: SF-539 CNS
[19] = test system: T-47D breast
[20] = test system: HCT-15 colon
[21] = test system: SR leukemia
[22] = test system: EKVX NSCLC
[23] = test system: NCI/ADR-RES ovarian
[24] = test system: HS 578T breast
[25] = test system: MCF7 breast
[26] = test system: SNB-19 CNS
[27] = test system: NCI-H460 lung
[28] = test system: NCI-H23 lung
[29] = test system: A498 renal
[30] = test system: SK-MEL-2 melanoma
[31] = test system: M14 melanoma
[32] = test system: TK-10 renal
[33] = test system: UO-31 renal
[34] = test system: SW-620 colon
[35] = test system: ACHN renal
[36] = test system: PC-3 prostate
[37] = test system: A549 NSCLC
[38] = test system: RXF 393 renal
[39] = test system: NCI-H226 lung
[40] = test system: KM12 colon
[41] = test system: U251 CNS
[42] = test system: SK-MEL-5 melanoma
[43] = test system: COLO 205 colon
[44] = test system: MOLT-4 leukemia
[45] = test system: HT29 colon
[46] = test system: OVCAR-8 ovarian
[47] = test system: SN12C renal
[48] = test system: IGROV1 ovarian
[49] = test system: HCC-2998 colon
[50] = test system: SK-OV-3 ovarian
[51] = test system: NCI-H522 lung
[52] = test system: BT-549 breast

**Q.** `N#Cc1c(NC(=O)c2ccccc2C(F)(F)F)sc2c1CCC(=O)C2` was tested. Which GI50 [1] did it give?
**A.** The GI50 was 363 nM.

**Q.** And the TGI [1]?
**A.** The TGI was 4890 nM.

**Q.** And the GI50 [2]?
**A.** The GI50 was 3120 nM.

**Q.** And the TGI [2]?
**A.** Its TGI is greater than 100000 nM.

**Q.** And the GI50 [3]?
**A.** The GI50 was 785 nM.

**Q.** What about the TGI [3] of the same compound?
**A.** The TGI was 2560 nM.

**Q.** What about the GI50 [4] of the same compound?
**A.** The GI50 was 4670 nM.

**Q.** And the TGI [4]?
**A.** The TGI was greater than 100000 nM.

**Q.** And the GI50 [5]?
**A.** Its GI50 is 272 nM.

**Q.** And the TGI [5]?
**A.** Its TGI is 954 nM.

**Q.** What about the GI50 [6] of the same compound?
**A.** The GI50 was 1180 nM.

**Q.** What about the TGI [6] of the same compound?
**A.** Its TGI is 2960 nM.

**Q.** What about the GI50 [7] of the same compound?
**A.** The GI50 was 2580 nM.

**Q.** What about the TGI [7] of the same compound?
**A.** The TGI was 7050 nM.

**Q.** What about the GI50 [8] of the same compound?
**A.** The GI50 was 2080 nM.

**Q.** And the TGI [8]?
**A.** The TGI was 5430 nM.

**Q.** And the GI50 [9]?
**A.** The GI50 was 1480 nM.

**Q.** What about the TGI [9] of the same compound?
**A.** The TGI was 3810 nM.

**Q.** What about the GI50 [10] of the same compound?
**A.** Its GI50 is 2210 nM.

**Q.** And the TGI [10]?
**A.** The TGI was 6480 nM.

**Q.** And the GI50 [11]?
**A.** Its GI50 is 1630 nM.

**Q.** And the TGI [11]?
**A.** The TGI was 6100 nM.

**Q.** And the GI50 [12]?
**A.** Its GI50 is 325 nM.

**Q.** What about the TGI [12] of the same compound?
**A.** Its TGI is 14900 nM.

**Q.** And the GI50 [13]?
**A.** The GI50 was 3310 nM.

**Q.** And the TGI [13]?
**A.** Its TGI is 34000 nM.

**Q.** And the GI50 [14]?
**A.** The GI50 was 1970 nM.

**Q.** And the TGI [14]?
**A.** The TGI was 5860 nM.

**Q.** What about the GI50 [15] of the same compound?
**A.** Its GI50 is 405 nM.

**Q.** And the TGI [15]?
**A.** The TGI was 4020 nM.

**Q.** And the GI50 [16]?
**A.** The GI50 was 3250 nM.

**Q.** And the TGI [16]?
**A.** Its TGI is greater than 100000 nM.

**Q.** And the GI50 [17]?
**A.** The GI50 was 378 nM.

**Q.** And the TGI [17]?
**A.** Its TGI is 11300 nM.

**Q.** What about the GI50 [18] of the same compound?
**A.** The GI50 was 480 nM.

**Q.** And the TGI [18]?
**A.** The TGI was 1910 nM.

**Q.** And the GI50 [19]?
**A.** The GI50 was 374 nM.

**Q.** What about the TGI [19] of the same compound?
**A.** Its TGI is 3240 nM.

**Q.** And the GI50 [20]?
**A.** Its GI50 is 405 nM.

**Q.** And the TGI [20]?
**A.** The TGI was 1850 nM.

**Q.** And the GI50 [21]?
**A.** The GI50 was 359 nM.

**Q.** What about the TGI [21] of the same compound?
**A.** Its TGI is 5820 nM.

**Q.** What about the GI50 [22] of the same compound?
**A.** The GI50 was 2680 nM.

**Q.** What about the TGI [22] of the same compound?
**A.** The TGI was 11400 nM.

**Q.** And the GI50 [23]?
**A.** The GI50 was 1310 nM.

**Q.** And the TGI [23]?
**A.** The TGI was 5180 nM.

**Q.** And the GI50 [24]?
**A.** The GI50 was 1950 nM.

**Q.** What about the TGI [24] of the same compound?
**A.** The TGI was 8360 nM.

**Q.** And the GI50 [25]?
**A.** The GI50 was 1390 nM.

**Q.** And the TGI [25]?
**A.** The TGI was 10300 nM.

**Q.** What about the GI50 [26] of the same compound?
**A.** Its GI50 is 3370 nM.

**Q.** What about the TGI [26] of the same compound?
**A.** Its TGI is greater than 100000 nM.

**Q.** And the GI50 [27]?
**A.** Its GI50 is 3350 nM.

**Q.** And the TGI [27]?
**A.** The TGI was 19000 nM.

**Q.** What about the GI50 [28] of the same compound?
**A.** Its GI50 is 1040 nM.

**Q.** What about the TGI [28] of the same compound?
**A.** The TGI was 9280 nM.

**Q.** And the GI50 [29]?
**A.** Its GI50 is 10500 nM.

**Q.** And the TGI [29]?
**A.** The TGI was 25000 nM.

**Q.** What about the GI50 [30] of the same compound?
**A.** The GI50 was 2650 nM.

**Q.** And the TGI [30]?
**A.** Its TGI is 7020 nM.

**Q.** What about the GI50 [31] of the same compound?
**A.** The GI50 was 2090 nM.

**Q.** And the TGI [31]?
**A.** The TGI was 9330 nM.

**Q.** What about the GI50 [32] of the same compound?
**A.** Its GI50 is 1640 nM.

**Q.** And the TGI [32]?
**A.** Its TGI is 9830 nM.

**Q.** And the GI50 [33]?
**A.** The GI50 was 490 nM.

**Q.** And the TGI [33]?
**A.** Its TGI is 1820 nM.

**Q.** What about the GI50 [34] of the same compound?
**A.** Its GI50 is 427 nM.

**Q.** And the TGI [34]?
**A.** The TGI was 2520 nM.

**Q.** And the GI50 [35]?
**A.** The GI50 was 433 nM.

**Q.** What about the TGI [35] of the same compound?
**A.** Its TGI is 1480 nM.

**Q.** And the GI50 [36]?
**A.** The GI50 was 384 nM.

**Q.** What about the TGI [36] of the same compound?
**A.** The TGI was 15600 nM.

**Q.** And the GI50 [37]?
**A.** Its GI50 is 3670 nM.

**Q.** And the TGI [37]?
**A.** The TGI was 29200 nM.

**Q.** What about the GI50 [38] of the same compound?
**A.** The GI50 was 1050 nM.

**Q.** And the TGI [38]?
**A.** Its TGI is 2800 nM.

**Q.** What about the GI50 [39] of the same compound?
**A.** Its GI50 is 2090 nM.

**Q.** What about the TGI [39] of the same compound?
**A.** The TGI was 5940 nM.

**Q.** And the GI50 [40]?
**A.** The GI50 was 3440 nM.

**Q.** What about the TGI [40] of the same compound?
**A.** The TGI was 13900 nM.

**Q.** What about the GI50 [41] of the same compound?
**A.** The GI50 was 1240 nM.

**Q.** What about the TGI [41] of the same compound?
**A.** The TGI was greater than 100000 nM.

**Q.** And the GI50 [42]?
**A.** The GI50 was 1650 nM.

**Q.** What about the TGI [42] of the same compound?
**A.** The TGI was 3470 nM.

**Q.** And the GI50 [43]?
**A.** The GI50 was 1870 nM.

**Q.** What about the TGI [43] of the same compound?
**A.** The TGI was 3740 nM.

**Q.** What about the GI50 [44] of the same compound?
**A.** Its GI50 is 1610 nM.

**Q.** What about the TGI [44] of the same compound?
**A.** Its TGI is 16700 nM.

**Q.** And the GI50 [45]?
**A.** The GI50 was 771 nM.

**Q.** And the TGI [45]?
**A.** Its TGI is 9170 nM.

**Q.** What about the GI50 [46] of the same compound?
**A.** Its GI50 is 1680 nM.

**Q.** What about the TGI [46] of the same compound?
**A.** The TGI was greater than 100000 nM.

**Q.** And the GI50 [47]?
**A.** Its GI50 is 2500 nM.

**Q.** And the TGI [47]?
**A.** The TGI was 15900 nM.

**Q.** What about the GI50 [48] of the same compound?
**A.** The GI50 was 2370 nM.

**Q.** What about the TGI [48] of the same compound?
**A.** Its TGI is 13100 nM.

**Q.** And the GI50 [49]?
**A.** Its GI50 is 2910 nM.

**Q.** And the TGI [49]?
**A.** Its TGI is 11500 nM.

**Q.** What about the GI50 [50] of the same compound?
**A.** Its GI50 is 4870 nM.

**Q.** What about the TGI [50] of the same compound?
**A.** The TGI was 50400 nM.

**Q.** What about the GI50 [51] of the same compound?
**A.** The GI50 was 360 nM.

**Q.** And the TGI [51]?
**A.** Its TGI is 2580 nM.

**Q.** And the GI50 [52]?
**A.** The GI50 was 1090 nM.

**Q.** And the TGI [52]?
**A.** Its TGI is 8620 nM.
